Source: ChEMBL document CHEMBL6092165, “Discovery of sp3-rich diazatricycloundecanes as lysosomotropic autophagy inhibitors” (Eur J Med Chem, 2024)
Calls of active or inactive are those of the source. No cut-off for these calls is given here.

Tests used:
[1] = tested on: HeLa; assay: Antiproliferative activity against human HeLa cells assessed as inhibition of cell growth incubated for 72 hrs by MTT assay; assay type: functional, cell-based
[2] = Induction of autophagic flux in human HeLa cells overexpressing EGFP-LC3 assessed as fold increase in GFP-tagged LC3-II protein expression at 10 uM incubated for 24 hrs by Western blotting analysis (reference value: 1); assay type: functional
[3] = tested on: HeLa; assay: Induction of autophagic flux in human HeLa cells overexpressing EGFP-LC3 assessed as increase in GFP-tagged LC3-II protein expression at 10 uM incubated for 24 hrs by Western blotting analysis; assay type: functional, cell-based
[4] = Induction of autophagic flux in human HeLa cells overexpressing EGFP-LC3 assessed as fold increase in GFP-tagged LC3-II protein expression at 3 uM incubated for 24 hrs by Western blotting analysis (reference value: 1); assay type: functional
[5] = Induction of autophagic flux in human HeLa cells overexpressing EGFP-LC3 assessed as fold increase in GFP-tagged LC3-II protein expression at 1 uM incubated for 24 hrs by Western blotting analysis (reference value: 1); assay type: functional
[6] = tested on: Lysosomal membrane; assay: Disruption of lysosomal membrane in human HT-1080 cells assessed as downregulation of cathepsin B expression at 5 uM incubated for 12 hrs by Western blotting analysis; assay type: subcellular
[7] = tested on: Lysosomal membrane; assay: Disruption of lysosomal membrane in human HT-1080 cells assessed as downregulation of cathepsin B expression at 20 uM incubated for 12 hrs by Western blotting analysis; assay type: subcellular
[8] = tested on: HeLa; assay: Induction of autophagy in human HeLa cells overexpressing EGFP-LC3 assessed as increase in LC3-II puncta formation at 10 uM incubated for 24 hrs in presence of chloroquine by Hoechst staining based immunofluorescence analysis; assay type: functional, cell-based
[9] = tested on: HeLa; assay: Induction of autophagy in human HeLa cells overexpressing EGFP-LC3 assessed as increase in LC3-II puncta formation at 10 uM incubated for 24 hrs in presence of rapamycin by Hoechst staining based immunofluorescence analysis; assay type: functional, cell-based
[10] = tested on: Lysosomal membrane; assay: Induction of lysosomal membrane permeabilization in human HeLa cells assessed as increase fluorescence intensity at 10 uM incubated for 24 hrs in presence of chloroquine by LysoTracker Red DND-99 dye based confocal laser microscopic analysis; assay type: subcellular
[11] = tested on: Lysosomal membrane; assay: Induction of lysosomal membrane permeabilization in human HeLa cells assessed as increase fluorescence intensity at 10 uM incubated for 24 hrs in presence of bafilomycin A1 by LysoTracker Red DND-99 dye based confocal laser microscopic analysis; assay type: subcellular
[12] = tested on: Lysosomal membrane; assay: Disruption of lysosomal membrane in human HT-1080 cells assessed as downregulation of cathepsin B expression at 20 uM by Western blotting analysis; assay type: subcellular
[13] = tested on: Lysosomal membrane; assay: Disruption of lysosomal membrane in human HT-1080 cells assessed as downregulation of cathepsin B expression incubated for 24 hrs by Western blotting analysis; assay type: subcellular
[14] = tested on: HT-1080; assay: Induction of autophagic flux in human HT-1080 cells assessed as increase in LC3-II protein expression at 10 uM incubated for 24 hrs by Western blotting analysis; assay type: functional, cell-based
[15] = tested on: HT-1080; assay: Antiproliferative activity against human HT-1080 cells assessed as inhibition of cell growth incubated for 72 hrs by MTT assay; assay type: functional, cell-based

CNC(=O)C[C@H]1CN2C3CC(OC(=O)C(C)C)C1C2CN(Cc1ccccc1)C3 (some centres not stated)
IC50 [1]: > 100 µM
fold change (FC) [2]: 1.9

CCOC(=O)C[C@H]1CN2C3CC(=O)C1C2CN(Cc1ccccc1)C3 (some centres not stated)
IC50 [1]: > 100 µM
Activity [3]: inactive

CC(C)C(=O)OC1CC2CN(Cc3ccccc3)CC3C1[C@@H](CC(=O)NCC1CCCCC1)CN23 (some centres not stated)
IC50 [1]: 15.5 µM
fold change (FC) [2]: 2.4
fold change (FC) [4]: 2.1
fold change (FC) [5]: 2

O=C(C[C@H]1CN2C3CC(OC(=O)C4CC4)C1C2CN(Cc1ccccc1)C3)NCc1ccccc1 (some centres not stated)
IC50 [1]: 18 µM
fold change (FC) [2]: 5.7

CC(C)CNC(=O)C[C@H]1CN2C3CC(OC(=O)CC(C)C)C1C2CN(Cc1ccccc1)C3 (some centres not stated)
IC50 [1]: 15.7 µM
fold change (FC) [2]: 1.7

CC(C)CC(=O)OC1CC2CN(CC(C)C)CC3C1[C@@H](CC(=O)NCc1ccccc1)CN23 (some centres not stated)
IC50 [1]: 34.2 µM
fold change (FC) [2]: 2.5

CCCCCCNC(=O)/C=C1/CN2C3CC(OC(=O)C(C)C)C1C2CN(Cc1ccccc1)C3 (configuration not stated)
IC50 [1]: 12.5 µM
fold change (FC) [2]: 3

CC(C)CC(=O)OC1CC2CN(Cc3ccccc3)CC3C1[C@@H](CC(=O)NCc1ccccc1)CN23 (some centres not stated)
IC50 [1]: 10 µM
fold change (FC) [2]: 3

CC(C)CCC(=O)OC1CC2CN(Cc3ccccc3)CC3C1[C@@H](CC(=O)NCc1ccccc1)CN23 (some centres not stated)
IC50 [1]: 6.2 µM
fold change (FC) [2]: 3.7

CCCCCCNC(=O)/C=C1/CN2C3CC(OC(=O)C(C)C)C1C2CN(C)C3 (configuration not stated)
IC50 [1]: > 100 µM
fold change (FC) [2]: 2.1

CC(=O)OC1CC2CN(Cc3ccccc3)CC3C1[C@@H](CC(=O)NCc1ccccc1)CN23 (some centres not stated)
IC50 [1]: 78.4 µM
fold change (FC) [2]: 3.5

O=C(C[C@H]1CN2C3CC(OC(=O)C4CCCCCC4)C1C2CN(Cc1ccccc1)C3)NCc1ccccc1 (some centres not stated)
IC50 [1]: 5.1 µM
fold change (FC) [2]: 2.2

CCCCCCNC(=O)/C=C1/CN2C3CC(OC(=O)C(C)C)C1C2CN(C(=O)c1ccccc1)C3 (configuration not stated)
IC50 [1]: > 100 µM
fold change (FC) [2]: 1.3

CCCCCCCCCCCCCCCC(=O)OC1CC2CN(Cc3ccccc3)CC3C1[C@@H](CC(=O)NCc1ccccc1)CN23 (some centres not stated)
IC50 [1]: 5.5 µM
fold change (FC) [2]: 1.1

CC(C)CNC(=O)C[C@H]1CN2C3CC(OC(=O)Cc4ccccc4)C1C2CN(Cc1ccccc1)C3 (some centres not stated)
IC50 [1]: 47.9 µM
fold change (FC) [2]: 1.6

CC(C)(C)C(=O)OC1CC2CN(Cc3ccccc3)CC3C1[C@@H](CC(=O)NCc1ccccc1)CN23 (some centres not stated)
IC50 [1]: 5.6 µM
fold change (FC) [2]: 3.8

CO/C1=C\C(C)=C\[C@@H](C)[C@@H](O)[C@@H](C)C/C(C)=C/C=C/[C@H](OC)[C@@H]([C@@H](C)[C@@H](O)[C@H](C)[C@@]2(O)C[C@@H](O)[C@H](C)[C@@H](C(C)C)O2)OC1=O
Activity [6]: Active

CC(C)CN1CC2CC(OC(=O)Cc3ccccc3)C3C(C1)N2C[C@@H]3CC(=O)NCc1ccccc1 (some centres not stated)
IC50 [1]: 94.2 µM
fold change (FC) [2]: 1.8

CCN(CC)CCCC(C)Nc1ccnc2cc(Cl)ccc12 (configuration not stated) [CHLOROQUINE]
IC50 [1]: 43.1 µM
fold change (FC) [2]: 2
Activity [7]: Active

CC(C)NC(=O)C[C@H]1CN2C3CC(OC(=O)C(C)C)C1C2CN(Cc1ccccc1)C3 (some centres not stated)
IC50 [1]: > 100 µM
fold change (FC) [2]: 1.8

O=C(C[C@H]1CN2C3CC(OC(=O)C4CCCCC4)C1C2CN(Cc1ccccc1)C3)NCc1ccccc1 (some centres not stated)
IC50 [1]: 5.2 µM
fold change (FC) [2]: 3.7

CC(C)CNC(=O)C[C@H]1CN2C3CC(OC(=O)Cc4ccccc4)C1C2CN(CC(C)C)C3 (some centres not stated)
IC50 [1]: > 100 µM
fold change (FC) [2]: 1.3

O=C(C[C@H]1CN2C3CC(=O)C1C2CN(Cc1ccccc1)C3)NCc1ccccc1 (some centres not stated)
IC50 [1]: > 100 µM
Activity [3]: inactive

CC(C)C(=O)OC1CC2CN(CC3CCCCC3)CC3C1[C@@H](CC(=O)NCC1CCCCC1)CN23 (some centres not stated)
IC50 [1]: 6 µM
fold change (FC) [2]: 2.9
fold change (FC) [4]: 3.7
fold change (FC) [5]: 1.4

CC(C)C(=O)OC1CC2CN(Cc3ccccc3)CC3C1[C@@H](CC(=O)NCc1ccccc1)CN23 (some centres not stated)
IC50 [1]: 19.3 µM
fold change (FC) [2]: 1.9

CCCCCCNC(=O)C[C@H]1CN2C3CC(OC(=O)C(C)C)C1C2CN(Cc1ccccc1)C3 (some centres not stated)
IC50 [1]: 10.1 µM
fold change (FC) [2]: 2.4
fold change (FC) [4]: 2.6
Activity [8]: Not active; Compared To Compound Alone Or Chloroquine Alone Treatment; Mechanism Of Action Similar To Chloroquine
Activity [9]: Active; Compared To Compound Alone Or Rapamycin Alone Treatment
Activity [10]: Active; Compound Observed To Enlarge Lysosome And Increase Lysosomal Ph Similar To Chloroquine
Activity [11]: inactive
Activity [12]: Time-dependent-effect
Activity [13]: Dose-dependent-effect
Activity [14]: Active
Activity [15]: Active
fold change (FC) [5]: 1.3

O=C(C[C@H]1CN2C3CC(OC(=O)Cc4ccccc4)C1C2CN(Cc1ccccc1)C3)NCc1ccccc1 (some centres not stated)
IC50 [1]: 14.8 µM
fold change (FC) [2]: 2

CCCCC(=O)OC1CC2CN(Cc3ccccc3)CC3C1[C@@H](CC(=O)NCc1ccccc1)CN23 (some centres not stated)
IC50 [1]: 6.7 µM
fold change (FC) [2]: 5.4

O=C(C[C@H]1CN2C3CC(O)C1C2CN(Cc1ccccc1)C3)NCc1ccccc1 (some centres not stated)
IC50 [1]: > 100 µM
Activity [3]: inactive

CCCCCCNC(=O)/C=C1/CN2C3CNCC2C1C(OC(=O)C(C)C)C3 (configuration not stated)
IC50 [1]: > 100 µM
fold change (FC) [2]: 1.3

CC(C)CNC(=O)C[C@H]1CN2C3CC(OC(=O)CC(C)C)C1C2CN(CC(C)C)C3 (some centres not stated)
IC50 [1]: > 100 µM
fold change (FC) [2]: 1.2

CCOC(=O)C[C@H]1CN2C3CNCC2C1C(=O)C3 (some centres not stated)
IC50 [1]: > 100 µM
Activity [3]: inactive

CCCCCCNC(=O)/C=C1/CN2C3CC(OC(=O)C(C)C)C1C2CN(C(=O)OCc1ccccc1)C3 (configuration not stated)
IC50 [1]: 23.1 µM
fold change (FC) [2]: 1.3

C#CCCCC(=O)OC1CC2CN(Cc3ccccc3)CC3C1[C@@H](CC(=O)NCc1ccccc1)CN23 (some centres not stated)
IC50 [1]: 15.7 µM
fold change (FC) [2]: 4.3
